From PubChem BioAssay (NCI) come the findings set out here.

Structures are written as SMILES.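 All cell lines were grown in 96-well plates and treated with compound for 48 hours. Here, GI50 denotes the concentration required for 50% inhibition of growth. TGI: concentration producing complete growth inhibition.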

Some test systems named below: COLO 205 colon; HCC-2998 colon; HCT-116 colon; HL-60(TB) leukemia; HS 578T breast; IGROV1 ovarian; MALME-3M melanoma; MDA-MB-231 breast; OVCAR-8 ovarian; SK-MEL-2 melanoma.
Common to all, as to test: NCI anticancer screen, dose series, 48 h

With `CCN1CCN(c2nc(NNC(=O)Cc3ccccc3)nc(N3CCN(C(c4ccccc4)c4ccccc4)CC3)n2)CC1`, the GI50 in the experiment with COLO 205 colon is 1.88 µM; in the experiment on HCC-2998 colon, 1.71 µM; in the experiment on HCT-116 colon, 1.72 µM; in the experiment with HL-60(TB) leukemia, 1.89 µM; in the experiment on HS 578T breast it was 1.68 µM; in the experiment with IGROV1 ovarian, 2.03 µM. Also, the GI50 in the experiment on MALME-3M melanoma was 1.64 µM; in the experiment on MDA-MB-231 breast, 1.99 µM; in the experiment on OVCAR-8 ovarian, 2.51 µM; in the experiment on SK-MEL-2 melanoma, 2.1 µM. Also, the TGI in the experiment on COLO 205 colon amounted to 3.82 µM; with HCC-2998 colon, 3.39 µM; with HCT-116 colon, 3.13 µM; in the experiment with HL-60(TB) leukemia, 4.04 µM; in the experiment on HS 578T breast, 3.79 µM; in the experiment with IGROV1 ovarian, 5.02 µM. The TGI was 3.29 µM in the experiment with MALME-3M melanoma, 3.69 µM in the experiment on MDA-MB-231 breast, 6.57 µM with OVCAR-8 ovarian and 4.5 µM in the experiment on SK-MEL-2 melanoma.

For `COc1ccc(OC)c(-c2nc3sccn3c2/C=C2/C(=O)Nc3ccc(Cl)cc32)c1`, the GI50 in the experiment with COLO 205 colon was 18.5 µM; with HCC-2998 colon it was 18.4 µM; in the experiment on HCT-116 colon, 29.7 µM; in the experiment on HL-60(TB) leukemia it was 31.2 µM; in the experiment on HS 578T breast it was 15.6 µM; with IGROV1 ovarian, 33.5 µM. The GI50 in the experiment on MALME-3M melanoma is 30.8 µM; in the experiment on MDA-MB-231 breast, 20.3 µM; in the experiment with OVCAR-8 ovarian, 34.4 µM; in the experiment on SK-MEL-2 melanoma, 17.5 µM. Besides, the TGI in the experiment with COLO 205 colon was 39.5 µM; in the experiment on HCC-2998 colon, 33.9 µM; in the experiment on HCT-116 colon, more than 100 µM; in the experiment with HL-60(TB) leukemia, 76 µM; with HS 578T breast it was 53.5 µM; in the experiment on IGROV1 ovarian it was more than 100 µM. Also, the TGI with MALME-3M melanoma is 80.8 µM; in the experiment on MDA-MB-231 breast, 55.3 µM; in the experiment on OVCAR-8 ovarian it was more than 100 µM; with SK-MEL-2 melanoma, 35.2 µM.

As for `S=c1nc(-c2nc(=S)[nH]c3c2CCCCCCCCCC3)c2c([nH]1)CCCCCCCCCC2`, the TGI in the experiment on COLO 205 colon, in the experiment on HCC-2998 colon, in the experiment with HCT-116 colon, in the experiment with HL-60(TB) leukemia, with HS 578T breast and in the experiment on IGROV1 ovarian was more than 100 µM in each case. The TGI in the experiment on MALME-3M melanoma, in the experiment with MDA-MB-231 breast, in the experiment with OVCAR-8 ovarian and in the experiment with SK-MEL-2 melanoma was more than 100 µM each time.

For the compound `O=C(c1ccccc1Nc1ccnc(C(F)(F)F)c1)N1CCN(c2cccc(Cl)c2)CC1`, the GI50 is 15.1 µM in the experiment with COLO 205 colon; 24.6 µM with HCC-2998 colon; 12.2 µM in the experiment with HCT-116 colon; 16.2 µM with HL-60(TB) leukemia; 17.3 µM with HS 578T breast; 5.53 µM in the experiment with IGROV1 ovarian. Further, the GI50 in the experiment on MALME-3M melanoma was 23.1 µM; in the experiment on MDA-MB-231 breast, 16.1 µM; in the experiment on OVCAR-8 ovarian, 24.4 µM; in the experiment on SK-MEL-2 melanoma it was 21.1 µM. In addition, the TGI in the experiment on COLO 205 colon is 30.1 µM; in the experiment on HCC-2998 colon, more than 72.9 µM; in the experiment on HCT-116 colon, 29 µM; with HL-60(TB) leukemia it was 59 µM; with HS 578T breast, 89.2 µM; with IGROV1 ovarian it was 24 µM. The TGI in the experiment on MALME-3M melanoma was 69.3 µM; with MDA-MB-231 breast, 56 µM; with OVCAR-8 ovarian, more than 87.8 µM; with SK-MEL-2 melanoma, 50.3 µM.

For the compound `Cc1ccc(Cl)cc1Nc1nc(C(F)(F)F)ccc1C(=O)Nc1cccc(C(F)(F)F)c1`, the GI50 was 1.72 µM with COLO 205 colon; 1.78 µM in the experiment with HCC-2998 colon; 2.39 µM in the experiment with HCT-116 colon; 3.61 µM in the experiment on HL-60(TB) leukemia; 4.66 µM in the experiment with HS 578T breast; 1.69 µM in the experiment on IGROV1 ovarian. The GI50 was 3.04 µM in the experiment on MALME-3M melanoma, 2.29 µM in the experiment on MDA-MB-231 breast, 3.62 µM with OVCAR-8 ovarian and 2.45 µM in the experiment with SK-MEL-2 melanoma. Moreover, the TGI with COLO 205 colon came out at 3.36 µM; in the experiment with HCC-2998 colon, 4.46 µM; with HCT-116 colon, 10.3 µM; in the experiment on HL-60(TB) leukemia it was 10.5 µM; with HS 578T breast, 20 µM; in the experiment on IGROV1 ovarian, 13.4 µM. Besides, the TGI stood at 12.4 µM in the experiment on MALME-3M melanoma, 9.63 µM with MDA-MB-231 breast, 15.8 µM with OVCAR-8 ovarian and 6.58 µM in the experiment with SK-MEL-2 melanoma.

As for `COc1ccccc1/C=C\c1cnnc2ccccc12`, the TGI in the experiment with COLO 205 colon, in the experiment on HCC-2998 colon, in the experiment with HCT-116 colon, in the experiment on HL-60(TB) leukemia, with HS 578T breast and in the experiment with IGROV1 ovarian was more than 10 µM in each case. The TGI in the experiment on MALME-3M melanoma, in the experiment on MDA-MB-231 breast, in the experiment with OVCAR-8 ovarian and in the experiment with SK-MEL-2 melanoma was more than 10 µM each time.

In the case of `O=C1NC(=O)/C(=C/C=C/c2ccccc2)S1`, the GI50 with COLO 205 colon was 14.4 µM; in the experiment on HCC-2998 colon it was 1.95 µM; with HCT-116 colon, 2.36 µM; with HL-60(TB) leukemia, 1.27 µM; with HS 578T breast it was 13.4 µM; in the experiment with IGROV1 ovarian it was 12.2 µM. The GI50 with MALME-3M melanoma was 12.3 µM; in the experiment with MDA-MB-231 breast, 30.4 µM; with OVCAR-8 ovarian it was 3.48 µM; in the experiment with SK-MEL-2 melanoma, 24.4 µM. The TGI is more than 48.3 µM in the experiment with COLO 205 colon; 11.1 µM in the experiment with HCC-2998 colon; 18.6 µM in the experiment with HCT-116 colon; 9.58 µM in the experiment with HL-60(TB) leukemia; more than 100 µM in the experiment with HS 578T breast; 57.5 µM in the experiment with IGROV1 ovarian. Also, the TGI in the experiment with MALME-3M melanoma was more than 82.4 µM; with MDA-MB-231 breast, more than 100 µM; with OVCAR-8 ovarian, more than 100 µM; in the experiment with SK-MEL-2 melanoma, more than 79.3 µM.

Regarding `CC(=O)Oc1ccc(OC(C)=O)c2ccccc12`, the GI50 in the experiment on COLO 205 colon is 15 µM; in the experiment with HCC-2998 colon it was 17.5 µM; with HCT-116 colon it was 3.59 µM; with HL-60(TB) leukemia it was 2.72 µM; with HS 578T breast, 13.2 µM; in the experiment with IGROV1 ovarian, 3.2 µM. Also, the GI50 in the experiment on MALME-3M melanoma was 14 µM; with MDA-MB-231 breast, 1.17 µM; in the experiment with OVCAR-8 ovarian it was 6.66 µM; in the experiment on SK-MEL-2 melanoma, 12.8 µM. Also, the TGI is 28.2 µM with COLO 205 colon; 31.7 µM in the experiment with HCC-2998 colon; 12.9 µM in the experiment with HCT-116 colon; 7.87 µM in the experiment on HL-60(TB) leukemia; 67.1 µM in the experiment on HS 578T breast; 11.5 µM with IGROV1 ovarian. The TGI in the experiment with MALME-3M melanoma was 33 µM; in the experiment on MDA-MB-231 breast it was 2.48 µM; with OVCAR-8 ovarian, 22.7 µM; with SK-MEL-2 melanoma, 27 µM.

Regarding `O=C(O)c1c(O)c2cc(Br)ccc2oc1=O`, the TGI in the experiment on COLO 205 colon, in the experiment on HCC-2998 colon, with HCT-116 colon, with HL-60(TB) leukemia, in the experiment on HS 578T breast and with IGROV1 ovarian was more than 100 µM each time. Further, the TGI in the experiment with MALME-3M melanoma, with MDA-MB-231 breast, in the experiment on OVCAR-8 ovarian and in the experiment on SK-MEL-2 melanoma was more than 100 µM throughout.
